Earlier results in patent US12201725B2, “Dry powder compositions of treprostinil prodrugs and methods of use thereof” (Insmed Incorporated, priority 2019, dated 2025).
Read-outs that look alike come from different tables or passages of the source.

Assays:
[1] = tested on: hypoxia-induced increase in right ventricular pulse pressure (RVPP); conditions: inhaled, comparison, not tested in Example 5
[2] = guinea pigs, comparison, not tested in Example 6

Timing of cough ([2]; nebulized): ≤ 10 min | Threshold dose of inhaled TRE that causes cough [2]: 1.23 µg/kg
Compound: CCCCC[C@H](O)CC[C@@H]1[C@H]2Cc3cccc(OCC(=O)O)c3C[C@H]2C[C@H]1O [treprostinil]
Duration of inhibition of the hypoxia-induced increase in RVPP ([1]; highest dose 215 μg/kg): 2 h | Duration of inhibition of the hypoxia-induced increase in RVPP ([1]; lower doses 15, 53, or 110 μg/kg): 1 h
